# According to patent publication US20250114338A1, “TETRAHYDRO-PYRIDO[3,4-b]INDOLE ESTROGEN RECEPTOR MODULATORS AND USES THEREOF” (Genentech, Inc., priority 2014, published 2025):
# Test system: ER-alpha MCF7
# Test: ER-alpha MCF7 HCS EC50; stated as measured by in vitro cell proliferation assays of Examples 902 and 903
# Assay type: cell-based
# Conditions: Homo sapiens, MCF7, MCF7 cells; Table 2
# How it was run: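 MCF7 cells seeded 1000-2000 cells/well for 16 h, then treated with nine-point 1:2 DMSO dilution series in quadruplicate at 37 °C, 5% CO2 for 4 days. Viable cells quantified by CellTiter-Glo ATP luminescence; EC50 calculated. Controls: fulvestrant at final 100 nM, DMSO 0.2% v/v.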
row,Structure (SMILES),EC50
1,"C[C@@H]1Cc2c([nH]c3ccccc23)[C@@H](c2ccc(OCCN3CC(CF)C3)cc2F)N1C[C@@](C)(F)CO [Example 273, (R)-2-fluoro-3-((1R,3R)-1-(2-fluoro-4-(2-(3-(fluoromethyl)azetidin-1-yl)ethoxy)phenyl)-3-methyl-1,3,4,9-tetrahydro-2H-pyrido[3,4-b]indol-2-yl)-2-methylpropan-1-ol]",0.28 nM
2,"C[C@@H]1Cc2c([nH]c3ccccc23)[C@@H](c2ccc(OCCN3CC(CF)C3)cc2F)N1C[C@](C)(F)CO [Example 274, (S)-2-fluoro-3-((1R,3R)-1-(2-fluoro-4-(2-(3-(fluoromethyl)azetidin-1-yl)ethoxy)phenyl)-3-methyl-1,3,4,9-tetrahydro-2H-pyrido[3,4-b]indol-2-yl)-2-methylpropan-1-ol]",0.253 nM
3,"C[C@@H]1Cc2c([nH]c3ccccc23)[C@@H](c2ccc(OCCN3CC(CF)C3)cc2)N1C[C@@](C)(F)CO [Example 275, (R)-2-fluoro-3-((1R,3R)-1-(4-(2-(3-(fluoromethyl)azetidin-1-yl)ethoxy)phenyl)-3-methyl-1,3,4,9-tetrahydro-2H-pyrido[3,4-b]indol-2-yl)-2-methylpropan-1-ol]",0.166 nM
4,"C[C@@H]1Cc2c([nH]c3ccccc23)[C@@H](c2ccc(OCCN3CC(CF)C3)cc2)N1C[C@](C)(F)CO [Example 276, (S)-2-fluoro-3-((1R,3R)-1-(4-(2-(3-(fluoromethyl)azetidin-1-yl)ethoxy)phenyl)-3-methyl-1,3,4,9-tetrahydro-2H-pyrido[3,4-b]indol-2-yl)-2-methylpropan-1-ol]",0.309 nM
5,"C[C@@H]1Cc2c([nH]c3ccccc23)[C@@H](c2ccc(OCCN3CC(CF)C3)c(F)c2)N1CC(C)(C)F [Example 279, (1R,3R)-2-(2-fluoro-2-methylpropyl)-1-(3-fluoro-4-(2-(3-(fluoromethyl)azetidin-1-yl)ethoxy)phenyl)-3-methyl-2,3,4,9-tetrahydro-1H-pyrido[3,4-b]indole]",0.16 nM
6,"C[C@@H]1Cc2c([nH]c3ccccc23)[C@H](c2ccc(OCCN3CC(CF)C3)c(F)c2)N1CC(C)(C)F [Example 280, (1S,3R)-2-(2-fluoro-2-methylpropyl)-1-(3-fluoro-4-(2-(3-(fluoromethyl)azetidin-1-yl)ethoxy)phenyl)-3-methyl-2,3,4,9-tetrahydro-1H-pyrido[3,4-b]indole]",6 nM
7,"C[C@@H]1Cc2c([nH]c3ccccc23)[C@@H](c2ccc(OCCN3CC(CF)C3)c(F)c2F)N1CC(C)(C)F [Example 281, (1R,3R)-1-(2,3-difluoro-4-(2-(3-(fluoromethyl)azetidin-1-yl)ethoxy)phenyl)-2-(2-fluoro-2-methylpropyl)-3-methyl-2,3,4,9-tetrahydro-1H-pyrido[3,4-b]indole]",0.183 nM

# The remaining lines, values ahead:
row,EC50,Structure (SMILES)
1,0.969 nM,"C[C@@H]1Cc2c([nH]c3ccccc23)[C@@H](c2c(F)cc(OC3CN(CCCF)C3)cc2F)N1C[C@@H](C)O [Example 264, (R)-1-((1R,3R)-1-(2,6-difluoro-4-((1-(3-fluoropropyl)azetidin-3-yl)oxy)phenyl)-3-methyl-1,3,4,9-tetrahydro-2H-pyrido[3,4-b]indol-2-yl)propan-2-ol]"
2,1.7 nM,"C[C@@H]1Cc2c([nH]c3ccccc23)[C@@H](c2c(F)cc(OCCN3CC(CCl)C3)cc2F)N1CC(C)(C)F [Example 265, (1R,3R)-1-[4-[2-[3-(chloromethyl)azetidin-1-yl]ethoxy]-2,6-difluoro-phenyl]-2-(2-fluoro-2-methyl-propyl)-3-methyl-1,3,4,9-tetrahydropyrido[3,4-b]indole]"
3,10 nM,"C[C@@H]1Cc2c([nH]c3ccccc23)[C@@H](c2ccc(OC3CN(CCCF)C3)c(Cl)c2)N1CC(C)(C)F [Example 266, (1R,3R)-1-[3-chloro-4-[1-(3-fluoropropyl)azetidin-3-yl]oxy-phenyl]-2-(2-fluoro-2-methyl-propyl)-3-methyl-1,3,4,9-tetrahydropyrido[3,4-b]indole]"
4,0.744 nM,"C[C@@H]1Cc2c([nH]c3ccccc23)[C@@H](c2ccc(OC3CN(CCCF)C3)c(F)c2)N1CC(C)(C)F [Example 267, (1R,3R)-1-[3-fluoro-4-[1-(3-fluoropropyl)azetidin-3-yl]oxy-phenyl]-2-(2-fluoro-2-methyl-propyl)-3-methyl-1,3,4,9-tetrahydropyrido[3,4-b]indole]"
5,8 nM,"C[C@@H]1Cc2c([nH]c3ccccc23)[C@@H](c2c(F)cc(OCCN3CC(CF)C3)cc2F)N1C[C@@H](O)CO [Example 268, (2R)-3-[(1R,3R)-1-[2,6-difluoro-4-[2-[3-(fluoromethyl)azetidin-1-yl]ethoxy]phenyl]-3-methyl-1,3,4,9-tetrahydropyrido[3,4-b]indol-2-yl]propane-1,2-diol]"
6,1 nM,"C[C@@H]1Cc2c([nH]c3ccccc23)[C@@H](c2c(F)cc(OC3CN(C[C@@H]4C[C@H]4F)C3)cc2F)N1CC(C)(C)F [Example 269, (1R,3R)-1-[2,6-difluoro-4-[1-[[(1S,2R)-2-fluorocyclopropyl]methyl]azetidin-3-yl]oxy-phenyl]-2-(2-fluoro-2-methyl-propyl)-3-methyl-1,3,4,9-tetrahydropyrido[3,4-b]indole]"
7,0.459 nM,"C[C@H](CF)CN1[C@H](c2c(F)cc(OCCN3CC(CF)C3)cc2F)c2[nH]c3ccccc3c2C[C@H]1C [Example 270, (1R,3R)-1-(2,6-difluoro-4-(2-(3-(fluoromethyl)azetidin-1-yl)ethoxy)phenyl)-2-((S)-3-fluoro-2-methylpropyl)-3-methyl-2,3,4,9-tetrahydro-1H-pyrido[3,4-b]indole]"
8,5 nM,"C[C@@H]1Cc2c([nH]c3ccccc23)[C@@H](c2c(F)cc(OCCN3CC(CF)C3)cc2F)N1C[C@](C)(O)CO [Example 271, (S)-3-((1R,3R)-1-(2,6-difluoro-4-(2-(3-(fluoromethyl)azetidin-1-yl)ethoxy)phenyl)-3-methyl-1,3,4,9-tetrahydro-2H-pyrido[3,4-b]indol-2-yl)-2-methylpropane-1,2-diol]"
9,0.685 nM,"C[C@@H]1Cc2c([nH]c3ccccc23)[C@@H](c2c(F)cc(OC3CN(CCCF)C3)cc2F)N1CC(C)(C)CF [Example 272, (1R,3R)-1-[2,6-difluoro-4-[1-(3-fluoropropyl)azetidin-3-yl]oxy-phenyl]-2-(3-fluoro-2,2-dimethyl-propyl)-3-methyl-1,3,4,9-tetrahydropyrido[3,4-b]indole]"
10,0.09 nM,"C[C@@H]1Cc2c([nH]c3ccccc23)[C@@H](c2c(F)cc(OC3CN(CCCF)C3)cc2F)N1CC(F)(F)F [Example 277, (1R,3R)-1-[2,6-difluoro-4-[1-(3-fluoropropyl)azetidin-3-yl]oxy-phenyl]-3-methyl-2-(2,2,2-trifluoroethyl)-1,3,4,9-tetrahydropyrido[3,4-b]indole]"
11,0.31 nM,"C[C@@H]1Cc2c([nH]c3ccccc23)[C@@H](c2c(F)cc(OCCN3CC(CF)C3)cc2F)N1C[C@@](C)(O)CO [Example 278, (2R)-3-[(1R,3R)-1-[2,6-difluoro-4-[2-[3-(fluoromethyl)azetidin-1-yl]ethoxy]phenyl]-3-methyl-1,3,4,9-tetrahydropyrido[3,4-b]indol-2-yl]-2-methyl-propane-1,2-diol]"
